The test system of data set [1] is MCF-7 breast cancer cells. Kind of data set: Emergence of tamoxifen resistant clones in MCF-7 cell culture. Format: cell-based, human. The conditions noted are these: tamoxifen combined with compound 1, MCF-7 cell culture.
In data set [2] the test system is MCF-7 human breast cancer tumor cells. The experiment in a line: MCF-7 human breast tumor xenograft in nude mice, Compound 1 with or without tamoxifen. In kind it is in vivo. The procedure:
Tumor-bearing animals (5 mice/group) were i.v. injected 1 time per week for a total of 3 doses with 10 mL/kg of 10/18 DRD vehicle with or without 180 mg/kg Compound 1. Animals were also implanted with slow release tamoxifen pellets (Tam). In the combination treatment group, animals were dosed with Compound 1 four days after tamoxifen pellets were implanted. Each group that was not dosed with Compound 1 was instead dosed with 10/18 DRD vehicle as a mock treatment. Average tumor volumes for each group were determined every 3-5 days.
The human breast cancer cell line, MCF-7, was obtained from the American Type Culture Collection (Manassas, Va., USA) and grown according to the ATCC guidelines. MCF-7 xenografts were established in twenty nude mice (Charles River Laboratories, Wilmington, Mass., USA) supplemented with slow release estrogen pellets as previously described, using 5×10^6 cells (1), and randomized into treatment groups. Ten days after cells were inoculated half of the animals were supplemented with slow release tamoxifen pellets.
To formulate Compound 1 in 10/18 DRD, stock solutions of the test article were prepared by dissolving the appropriate amounts of the compound in dimethyl sulfoxide (DMSO) by sonication in an ultrasonic water bath. Stock solutions were prepared weekly, stored at −20° C. and diluted fresh each day for dosing. A solution of 20% Cremophor RH40 (polyoxyl 40 hydrogenated castor oil; BASF Corp., Aktiengesellschaft, Ludwigshafen, Germany) in 5% dextrose in water (D5W; Abbott Laboratories, North Chicago, Ill., USA) was also prepared by first heating 100% Cremophor RH40 at 50-60° C. until liquefied and clear, diluting 1:5 with 100% D5W, reheating again until clear and then mixing well. This solution was stored at room temperature for up to 3 months prior to use. To prepare 10/18 DRD formulations for daily dosing, DMSO stock solutions were diluted 1:10 with 20% Cremophor RH40. The final 10/18 DRD formulation for dosing contained 10% DMSO, 18% Cremophor RH40, 3.6% dextrose, 68.4% water and the appropriate amount of test article. Animals were intravenously (i.v.) injected with this formulation at 10 mL per kg body weight on one day each week for a total of 3 doses, four days after tamoxifen pellets were implanted.
The ability of Compound 1 to enhance the in vivo anti-tumor activity of tamoxifen was investigated.
(Xenograft models place foreign cells or tissue in a host animal.)

Consider `CC(C)c1cc(-c2nnc(O)n2-c2ccc3c(ccn3C)c2)c(O)cc1O` [Compound 1, 3-(2,4-dihydroxy-5-isopropyl-phenyl)-4-(1-methyl-indol-5-yl)-5-hydroxy-[1,2,4]triazole], for which the “emergence of tamoxifen resistant clones” value in data set [1] is listed as “dramatically limited the emergence of tamoxifen resistant clones”. In addition, in data set [2] (Compound 1 alone cohort, 180 mg/kg i.v., one of the animals, following the first dose, removed from the study), the “adverse finding in dosed animals” value is “signs of necrosis in the tail”. Moreover, the “in vivo growth rate of MCF-7 cells (tumor volume)” value in data set [2] (Compound 1 alone, 180 mg/kg i.v. 1 time per week, 3 doses, nude mice) is “moderate reductions in the growth rate”. The “effect in combination with tamoxifen in the treatment of breast cancer” value in data set [2] (in combination with tamoxifen, preclinical model) is given as “surprising synergistic effect”. Also, in data set [2] (slow release tamoxifen combined with 180 mg/kg Compound 1 i.v. 1 time per week, 3 doses, nude mice), the “tumor response (tumor volume) to the combination” value is on record as “significant tumor regression”.

For the compound `CC/C(=C(\c1ccccc1)c1ccc(OCCN(C)C)cc1)c1ccccc1` [tamoxifen, reference compound], the “in vivo growth rate of MCF-7 cells (tumor volume)” value in data set [2] (slow release tamoxifen pellets alone (10/18 DRD vehicle as mock treatment), nude mice) was “moderate reductions in the growth rate”.
